Reference: patent publication US20230405028A1 (priority 2020, published 2023)
Where two headings read alike, the source gives them in different places.

Key:
[1] = tested on: Human primary small intestinal epithelial cells (HSIEC)
COX-2 = COX-2 in A-172 cells; assay type: cell-based; conditions: 5 μM psilocybin + 25 μM eugenol vs 5 μM psilocybin alone, eugenol alone 25 μM
Description: (§1) This experiment was designed to explore the synergistic interaction of 5HT2A agonist and a TRP agonists on receptors in the brain that are associated with depression and/or inflammation. […] The development of an inflammatory microenvironment is considered important to the initiation and progression of glioblastoma; however, therapeutic approaches to target inflammation have previously been limited. The abnormal function of IL-6 and IL-8 has been predicted to lead to glioblastoma.
(§2) Thus, unlike the experiments on HSIEC cells described above, no inflammatory treatment was applied to the A-172 cells. The A-172 cells were grown to […] confluence on T-25 flasks to allow a 96-hour duration of exposure of the cells to the compounds of interest

BDNF = BDNF in A-172 cells; assay type: cell-based; conditions: escalating doses
Description: as §1, §2

A-172 glioblastoma cells = experiment: MTT cell viability assay in A-172 cells

C=CCc1ccc(O)c(OC)c1 [eugenol]
effect on cell growth / cellular metabolic activity (MTT, words) [1]: slight inhibitory effect on cell growth | Cellular Metabolic Activity ([1]; 10 μM, 24 h): 0.064 | Cellular Metabolic Activity ([1]; 10 μM, 48 h): 0.168 | Cellular Metabolic Activity ([1]; 10 μM, 72 h): 0.346 | Cellular Metabolic Activity ([1]; 10 μM, 96 h): 0.632 | Cellular Metabolic Activity ([1]; 10 μM, time 0): 0.047 | Cellular Metabolic Activity ([1]; 50 μM, 24 h): 0.079 | Cellular Metabolic Activity ([1]; 50 μM, 48 h): 0.145 | Cellular Metabolic Activity ([1]; 50 μM, 72 h): 0.337 | Cellular Metabolic Activity ([1]; 50 μM, 96 h): 0.647 | Cellular Metabolic Activity ([1]; 50 μM, time 0): 0.038 | Cellular Metabolic Activity ([1]; 100 μM, 24 h): 0.075 | Cellular Metabolic Activity ([1]; 100 μM, 48 h): 0.136 | Cellular Metabolic Activity ([1]; 100 μM, 72 h): 0.346 | Cellular Metabolic Activity ([1]; 100 μM, 96 h): 0.662 | Cellular Metabolic Activity ([1]; 100 μM, time 0): 0.038 | Cellular Metabolic Activity ([1]; 200 μM, 24 h): 0.064 | Cellular Metabolic Activity ([1]; 200 μM, 48 h): 0.111 | Cellular Metabolic Activity ([1]; 200 μM, 72 h): 0.296 | Cellular Metabolic Activity ([1]; 200 μM, 96 h): 0.652 | Cellular Metabolic Activity ([1]; 200 μM, time 0): 0.041 | Cellular Metabolic Activity ([1]; 400 μM, 24 h): 0.059 | Cellular Metabolic Activity ([1]; 400 μM, 48 h): 0.128 | Cellular Metabolic Activity ([1]; 400 μM, 72 h): 0.242 | Cellular Metabolic Activity ([1]; 400 μM, 96 h): 0.549 | Cellular Metabolic Activity ([1]; 400 μM, time 0): 0.042 | Cellular Metabolic Activity ([1]; 800 μM, 24 h): 0.053 | Cellular Metabolic Activity ([1]; 800 μM, 48 h): 0.091 | Cellular Metabolic Activity ([1]; 800 μM, 96 h): 0.268 | Cellular Metabolic Activity ([1]; 800 μM, time 0): 0.042 | effect on COX-2 (COX-2): increase | dose resulting in the greatest increase in BDNF (BDNF): 100 µM | Cellular Metabolic Activity (A-172 glioblastoma cells; 10 μM, 24 h): 0.137 | Cellular Metabolic Activity (A-172 glioblastoma cells; 10 μM, 48 h): 0.234 | Cellular Metabolic Activity (A-172 glioblastoma cells; 10 μM, 72 h): 0.329 | Cellular Metabolic Activity (A-172 glioblastoma cells; 10 μM, 96 h): 0.533 | Cellular Metabolic Activity (A-172 glioblastoma cells; 10 μM, time 0): 0.084 | Cellular Metabolic Activity (A-172 glioblastoma cells; 25 μM, 24 h): 0.153 | Cellular Metabolic Activity (A-172 glioblastoma cells; 25 μM, 48 h): 0.266 | Cellular Metabolic Activity (A-172 glioblastoma cells; 25 μM, 72 h): 0.318 | Cellular Metabolic Activity (A-172 glioblastoma cells; 25 μM, 96 h): 0.557 | Cellular Metabolic Activity (A-172 glioblastoma cells; 25 μM, time 0): 0.083 | Cellular Metabolic Activity (A-172 glioblastoma cells; 50 μM, 24 h): 0.146 | Cellular Metabolic Activity (A-172 glioblastoma cells; 50 μM, 48 h): 0.229 | Cellular Metabolic Activity (A-172 glioblastoma cells; 50 μM, 72 h): 0.327 | Cellular Metabolic Activity (A-172 glioblastoma cells; 50 μM, 96 h): 0.542 | Cellular Metabolic Activity (A-172 glioblastoma cells; 50 μM, time 0): 0.086 | Cellular Metabolic Activity (A-172 glioblastoma cells; 100 μM, 24 h): 0.170 | Cellular Metabolic Activity (A-172 glioblastoma cells; 100 μM, 48 h): 0.230 | Cellular Metabolic Activity (A-172 glioblastoma cells; 100 μM, 72 h): 0.322 | Cellular Metabolic Activity (A-172 glioblastoma cells; 100 μM, 96 h): 0.516 | Cellular Metabolic Activity (A-172 glioblastoma cells; 100 μM, time 0): 0.082 | Cellular Metabolic Activity (A-172 glioblastoma cells; 200 μM, 24 h): 0.170 | Cellular Metabolic Activity (A-172 glioblastoma cells; 200 μM, 48 h): 0.224 | Cellular Metabolic Activity (A-172 glioblastoma cells; 200 μM, 72 h): 0.313 | Cellular Metabolic Activity (A-172 glioblastoma cells; 200 μM, 96 h): 0.431 | Cellular Metabolic Activity (A-172 glioblastoma cells; 200 μM, time 0): 0.089 | Cellular Metabolic Activity (A-172 glioblastoma cells; 400 μM, 24 h): 0.173 | Cellular Metabolic Activity (A-172 glioblastoma cells; 400 μM, 48 h): 0.208 | Cellular Metabolic Activity (A-172 glioblastoma cells; 400 μM, 72 h): 0.272 | Cellular Metabolic Activity (A-172 glioblastoma cells; 400 μM, 96 h): 0.422 | Cellular Metabolic Activity (A-172 glioblastoma cells; 400 μM, time 0): 0.088 | effect on cell growth (MTT, words) (A-172 glioblastoma cells; A-172, psilocybin 80 μM): slight inhibitory effect
